Earlier results as cited in patent publication US9555118B2, “Robust controlled-release peptide formulations” (CAMURUS AB, priority 2011, dated 2017).
*1 amine or outer side, *2 acyl side, *3 side chain or, on linkers, in order; H or OH if unused. Where a SMILES comes first, the peptide text is derived from it. Side-chain parts run from the residue outwards. [ ]: non-standard residue; d: D form. The star is where a group is joined. Ethylenediamine = C(CN[*:2])N[*:1]; Hyp = O=C(O)[C@@H]1C[C@@H](O)CN1; Phg = N[C@H](C(=O)O)c1ccccc1; CO = O=C([*:1])[*:2]; Bn = c1ccc(C*)cc1

Legend:
[1] = system: somatostatin receptors (SSTR1-SSTR5)
[2] = single subcutaneous dose, human plasma

Compound	Biological half-life (natural SST-14)	Somatostatin receptor affinity [1]	Initial half-life following the peak [2]	Terminal half-life (in vivo)	Somatostatin receptor selectivity [1]
Ala-Gly-Cys-Lys-Asn-Phe-Phe-Trp-Lys-Thr-Phe-Thr-Ser-Cys [SST-14]	1-3 minutes	equally high affinity			
NCCCC[C@@H]1NC(=O)[C@@H](Cc2c[nH]c3ccccc23)NC(=O)[C@H](c2ccccc2)NC(=O)[C@@H]2C[C@@H](OC(=O)NCCN)CN2C(=O)[C@H](Cc2ccccc2)NC(=O)[C@H](Cc2ccc(OCc3ccccc3)cc2)NC1=O [Pasireotide] (cyclo([Hyp]([CO-Ethylenediamine])[Phg][dW]KY(Bn)F))		high affinity for somatostatin receptor subtypes sstr1,2,3 and sstr5	2 to 3 h		
C[C@@H](O)[C@@H]1NC(=O)[C@H](CCCCN)NC(=O)[C@@H](Cc2c[nH]c3ccccc23)NC(=O)[C@H](Cc2ccccc2)NC(=O)[C@@H](NC(=O)[C@H](N)Cc2ccccc2)CSSC[C@@H](C(=O)N[C@H](CO)[C@@H](C)O)NC1=O [Octreotide, D-Phe-Cys-Phe-D-Trp-Lys-Thr-Cys-Thr-ol (2-7 disulphide bridge)]				around 1.7 hours	high selectivity for SSTR2 and SSTR5
